Measurements reported in patent publication US9822155B2 (priority 2013, dated 2017).
≈ marks a conversion by molar mass, not a printed value. Like-named read-outs stand apart in the source and are kept apart here. Peptide text beside a SMILES is read from it.

Experiments:
[1] = system: MDCK cells
[2] = in vitro; settings: dog, MDCK cells
[3] = system: influenza A virus (H1N1); type: cell-based, influenza A virus A/Hong Kong/415742Md/2009 (H1N1)
[4] = system: H1N1 virus
[5] = system: endosomal acidification
[6] = system: A/Hong Kong/415742Md/2009 (H1N1); type: in vivo

Structure (SMILES)	TC50 (50% toxic concentration) [1] [µg/mL]	CC50 at 24 h [2] [µg/mL]	viability at 24 h, 7.8 µg/mL [2] [%]	viability at 24 h, 15.6 µg/mL [2] [%]	viability at 24 h, 31.25 µg/mL [2] [%]	viability at 24 h, 62.5 µg/mL [2] [%]	viability at 24 h, 125 µg/mL [2] [%]	viability at 24 h, 250 µg/mL [2] [%]	antiviral effectiveness in low-salt PB compared with high-salt MEM [3]	further results
CC[C@H](C)[C@H](N)C(=O)N[C@H](C(=O)N[C@@H](CC(N)=O)C(=O)N[C@@H](CC(N)=O)C(=O)N1CCC[C@H]1C(=O)N[C@H](C(=O)N[C@H](C(=O)N[C@@H](CS)C(=O)N[C@@H](CCSC)C(=O)N[C@H](C(=O)N[C@@H](CC(N)=O)C(=O)NCC(=O)N[C@@H](C)C(=O)N[C@H](C(=O)N[C@@H](CS)C(=O)N[C@@H](Cc1c[nH]c2ccccc12)C(=O)NCC(=O)N1CCC[C@H]1C(=O)N[C@@H](CS)C(=O)N1CCC[C@H]1C(=O)N[C@H](C(=O)N[C@@H](C)C(=O)N[C@@H](Cc1ccccc1)C(=O)N[C@@H](CCCNC(=N)N)C(=O)N[C@@H](CCC(N)=O)C(=O)N[C@H](C(=O)NCC(=O)N[C@@H](CC(N)=O)C(=O)N[C@@H](CS)C(=O)NCC(=O)N[C@@H](Cc1c[nH]cn1)C(=O)N[C@@H](Cc1ccccc1)C(=O)N[C@@H](CCCCN)C(=O)N[C@H](C(=O)N[C@@H](CCCNC(=N)N)C(=O)N[C@@H](CS)C(=O)N[C@@H](CS)C(=O)N[C@@H](CCCCN)C(=O)N[C@H](C(=O)N[C@@H](CCCNC(=N)N)C(=O)O)[C@@H](C)CC)C(C)C)[C@@H](C)CC)[C@@H](C)O)[C@@H](C)CC)[C@@H](C)O)[C@@H](C)O)[C@@H](C)CC)[C@@H](C)CC [smBD4, reference compound]	94 (≈ 21.2 µM)	94 (≈ 21.2 µM)	93.7	85.3	71.9	60	45.5	36.5	more effective in low-salt phosphate buffer (PB) than in high-salt minimum essential medium (MEM)	–
CC[C@H](C)[C@H](NC(=O)[C@H](C)NC(=O)CNC(=O)[C@@H](N)CC(N)=O)C(=O)N[C@@H](CS)C(=O)N[C@@H](Cc1c[nH]c2ccccc12)C(=O)NCC(=O)N1CCC[C@H]1C(=O)N[C@@H](CS)C(=O)N1CCC[C@H]1C(=O)N[C@H](C(=O)N[C@@H](C)C(=O)N[C@@H](Cc1ccccc1)C(=O)N[C@@H](CCCNC(=N)N)C(=O)N[C@@H](CCC(N)=O)C(=O)N[C@H](C(=O)NCC(=O)N[C@@H](CC(N)=O)C(=O)N[C@@H](CS)C(=O)NCC(=O)N[C@@H](Cc1c[nH]cn1)C(=O)N[C@@H](Cc1ccccc1)C(=O)N[C@@H](CCCCN)C(=O)N[C@H](C(=O)N[C@@H](CCCNC(=N)N)C(=O)N[C@@H](CS)C(=O)N[C@@H](CS)C(=O)N[C@@H](CCCCN)C(=O)N[C@H](C(=O)N[C@@H](CCCNC(=N)N)C(=O)O)[C@@H](C)CC)C(C)C)[C@@H](C)CC)[C@@H](C)O [Peptide P9] (H-NGAICWGPCPTAFRQIGNCGHFKVRCCKIR-OH)	860 (≈ 258 µM)	860 (≈ 258 µM)	102	95.9	108	96	94.7	95.3	more effective in low-salt phosphate buffer (PB) than in high-salt minimum essential medium (MEM)	binding of P9 to cells [4]: no P9 (SEQ ID NO: 10) was detected on the cell membrane or inside the cells; binding of P9 to virus particles [4]: bound to the green-labeled virus particles; virus binding to the cell membrane [4]: could not block the virus binding to the cell membrane; virus entry into cells by endocytosis [4]: did not affect the virus entry into cells by endocytosis; viability at 24 h, 500 µg/mL [2]: 83.4%; viability at 24 h, 750 µg/mL [2]: 59.8%; viability at 24 h, 1000 µg/mL [2]: 38.7%; endosomal acidification (red fluorescence of pHrodo Red dextran) [5]: no red fluorescence in color image was observed; viral loads in lung tissues (RNA copies by RT-PCR, titers by plaque assay) ([6]; pretreated and i.n. or i.p. treated mice, day 5 after challenge, versus untreated): significantly lower than those of the untreated mice; alveolar damage and interstitial inflammatory infiltration in lung (H&E) ([6]; pretreated or treated mice versus rmBD4 and untreated mice): much less severe; survival rate ([6]; prophylactic, i.n. 50 μg/mouse before challenge with 5 LD50 H1N1, 9 mice/group, 21 days): 100%; survival rate ([6]; therapeutic, i.n. 3 doses 50 μg/dose/day starting 4 hours after lethal challenge): 67%; survival rate ([6]; therapeutic, i.p. 6 doses 200 μg/dose/day starting 4 hours post-challenge): 22%; survival rate ([6]; therapeutic, i.p. 6 doses 400 μg/dose/day starting 4 hours post-challenge): 56%; antiviral effect (infection ratio by plaque assay) [3]: highest antiviral effect
